{"source": "ChEMBL document CHEMBL6120965", "about": "“Structure-Activity Relationship Studies Leading to the Discovery of Highly Water-Soluble and Biocompatible Acyclic Cucurbit[n]uril FY-3451 as a Universal Antagonist That Rapidly Reverses Neuromuscular Blocking Agents In Vivo” (J Med Chem, 2024)", "key": {"[1]": {"assay": "Water solubility of the compound measured at 25 degreeC", "assay_type": "physicochemical"}, "Rattus norvegicus [2]": {"tested_on": "Rattus norvegicus", "assay": "Recovery of Roc-induced neuromuscular block in Sprague-Dawley rat assessed as […] ratio (TOFr) >= 90% by measuring recovery time at 25 mg/kg, iv (reference value: 597 seconds)", "assay_type": "functional"}, "Rattus norvegicus [3]": {"tested_on": "Rattus norvegicus", "assay": "Recovery of CisA-induced neuromuscular block in Sprague-Dawley rat assessed as […] ratio (TOFr) >= 90% by measuring recovery time at 100 mg/kg, iv (reference value: 784 seconds)", "assay_type": "functional"}, "Rattus norvegicus [4]": {"tested_on": "Rattus norvegicus", "assay": "Recovery of CisA-induced neuromuscular block in Sprague-Dawley rat assessed as […] ratio (TOFr) >= 90% by measuring recovery time at 150 mg/kg, iv (reference value: 784 seconds)", "assay_type": "functional"}, "Rattus norvegicus [5]": {"tested_on": "Rattus norvegicus", "assay": "Recovery of Vec-induced neuromuscular block in Sprague-Dawley rat assessed as […] ratio (TOFr) >= 90% by measuring recovery time at 25 mg/kg, iv (reference value: 525 seconds)", "assay_type": "functional"}, "Rattus norvegicus [6]": {"tested_on": "Rattus norvegicus", "assay": "Recovery of Pan-induced neuromuscular block in Sprague-Dawley rat assessed as […] ratio (TOFr) >= 90% by measuring recovery time at 25 mg/kg, iv (reference value: 3600 seconds)", "assay_type": "functional"}, "Rattus norvegicus [7]": {"tested_on": "Rattus norvegicus", "assay": "Recovery of IMC-1-induced neuromuscular block in Sprague-Dawley rat assessed as […] ratio (TOFr) >= 90% by measuring recovery time at 10 mg/kg, iv (reference value: 4021 seconds)", "assay_type": "functional"}, "[8]": {"assay": "Toxicity in iv dosed Sprague-Dawley rat assessed as maximum tolerated dose measured upto 14 days", "assay_type": "organism-based", "conditions": "in vivo, 336 h, time < 14 day"}, "Rocuronium": {"tested_on": "Rocuronium", "assay": "Binding affinity to Rocuronium by Competition UV-Vis titration method"}, "Cisatracurium": {"tested_on": "Cisatracurium", "assay": "Binding affinity to Cisatracurium by Competition UV-Vis titration method"}, "Vecuronium": {"tested_on": "Vecuronium", "assay": "Binding affinity to Vecuronium by Competition UV-Vis titration method"}, "Pancuronium": {"tested_on": "Pancuronium", "assay": "Binding affinity to Pancuronium by Competition UV-Vis titration method"}, "[9]": {"tested_on": "Midazolium-based-macrocycle", "assay": "Binding affinity to Midazolium-based-macrocycle by Competition UV-Vis titration method"}, "Rhodamine 6G": {"tested_on": "Rhodamine 6G", "assay": "Binding affinity to Rhodamine 6G by Competition UV-Vis titration method"}, "[10]": {"tested_on": "Trans-cydohexane-1,4-diartunonium dichloride", "assay": "Binding affinity to Trans-[…] dichloride by Competition UV-Vis titration method"}, "Proflavine": {"tested_on": "Proflavine", "assay": "Binding affinity to Proflavine by Competition UV-Vis titration method"}, "[11]": {"assay": "Therapeutic index, ratio of toxicity in iv dosed Sprague-Dawley rat assessed as maximum tolerated dose to recovery of Roc/Vec/Panc-induced neuromuscular block in Sprague-Dawley rat assessed as […] ratio (TOFr) by measuring recovery time at 25 mg/kg, iv", "assay_type": "organism-based", "conditions": "in vivo, read-out: TI"}, "[12]": {"assay": "Therapeutic index, ratio of toxicity in iv dosed Sprague-Dawley rat assessed as maximum tolerated dose to recovery of CisA-induced neuromuscular block in Sprague-Dawley rat assessed as […] ratio (TOFr) by measuring recovery time at 80 to 100 mg/kg, iv", "assay_type": "organism-based", "conditions": "in vivo, dose 80-100 mg/kg, read-out: TI"}, "[13]": {"assay": "Toxicity in Sprague-Dawley rat assessed as body weight loss measured at 2000 mg/kg, iv upto 14 days", "assay_type": "organism-based", "conditions": "in vivo, 336 h, time < 14 day"}, "[14]": {"assay": "Toxicity in human whole blood assessed as clotting indices measured at 1 mg/ml", "assay_type": "tissue-based"}, "[15]": {"assay": "Toxicity in human plasma assessed as abnormality in aPTT by measuring clotting time at < 4.8 mg/kg", "assay_type": "organism-based", "conditions": "in vivo"}, "[16]": {"assay": "Hemolytic activity in Sprague-Dawley rat erythrocytes assessed as hemolysis at 0.51 to 32.8 mg/ml", "assay_type": "toxicity, cell-based, Erythrocyte", "conditions": "dose 0.51-32.8 mg/ml, read-out: Activity"}, "[17]": {"assay": "Hemolytic activity in human erythrocytes assessed as hemolysis at 0.51 to 32.8 mg/ml", "assay_type": "toxicity, cell-based, Erythrocyte", "conditions": "dose 0.51-32.8 mg/ml, read-out: Activity"}, "[18]": {"assay": "Cytotoxicity against rat H9c2 cells assessed as cell viability measured after 25 hrs by CCK-8 assay", "assay_type": "toxicity, cell-based"}, "[19]": {"assay": "Cytotoxicity against rat H9c2 cells assessed as cell viability at 0.5 mg/ml measured after 25 hrs by CCK-8 assay", "assay_type": "toxicity, cell-based", "conditions": "read-out: Activity"}, "[20]": {"assay": "Toxicity in Sprague-Dawley rat assessed as histological changes in heart measured at 2000 mg/kg, iv upto 14 days by H and E assay", "assay_type": "organism-based", "conditions": "in vivo, 336 h, time < 14 day"}, "[21]": {"assay": "Toxicity in Sprague-Dawley rat assessed as histological changes in liver measured at 2000 mg/kg, iv upto 14 days by H and E assay", "assay_type": "organism-based", "conditions": "in vivo, 336 h, time < 14 day"}, "[22]": {"assay": "Toxicity in Sprague-Dawley rat assessed as histological changes in spleen measured at 2000 mg/kg, iv upto 14 days by H and E assay", "assay_type": "organism-based", "conditions": "in vivo, 336 h, time < 14 day"}, "[23]": {"assay": "Toxicity in Sprague-Dawley rat assessed as histological changes in lungs measured at 2000 mg/kg, iv upto 14 days by H and E assay", "assay_type": "organism-based", "conditions": "in vivo, 336 h, time < 14 day"}, "[24]": {"assay": "Toxicity in Sprague-Dawley rat assessed as histological changes in kidney measured at 2000 mg/kg, iv upto 14 days by H and E assay", "assay_type": "organism-based", "conditions": "in vivo, 336 h, time < 14 day"}, "Rattus norvegicus [25]": {"tested_on": "Rattus norvegicus", "assay": "Recovery of CisA-induced neuromuscular block in Sprague-Dawley rat assessed as […] ratio (TOFr) by measuring recovery time at 25 mg/kg, iv (reference value: 784 seconds)", "assay_type": "functional"}, "Rattus norvegicus [26]": {"tested_on": "Rattus norvegicus", "assay": "Recovery of Roc-induced neuromuscular block in Sprague-Dawley rat assessed as […] ratio (TOFr) by measuring recovery time at 12.5 mg/kg, iv (reference value: […])", "assay_type": "functional"}}, "data": [{"smiles": "C[C@]12N3Cc4c(c(OCCCS(=O)(=O)[O-])c5c(c4OCCCS(=O)(=O)[O-])CCC5)CN1C(=O)N1CN4C(=O)N5CN6C(=O)N7CN8C(=O)N9Cc%10c(c(OCCCS(=O)(=O)[O-])c%11c(c%10OCCCS(=O)(=O)[O-])CCC%11)CN%10C(=O)N(CN%11C(=O)N(CN%12C(=O)N(CN(C3=O)[C@]12C)[C@@H]4[C@H]%125)[C@@H]6[C@H]%117)[C@]8(C)[C@@]9%10C.[Na+].[Na+].[Na+].[Na+]", "values": [{"measurement": "solubility", "setting": "[1]", "result": 1000, "unit": "mg/mL"}, {"measurement": "Time", "setting": "Rattus norvegicus [2]", "result": 24, "unit": "s"}, {"measurement": "Time", "setting": "Rattus norvegicus [3]", "result": 34, "unit": "s"}, {"measurement": "Time", "setting": "Rattus norvegicus [4]", "result": 24, "unit": "s"}, {"measurement": "Time", "setting": "Rattus norvegicus [5]", "result": 15, "unit": "s"}, {"measurement": "Time", "setting": "Rattus norvegicus [6]", "result": 20, "unit": "s"}, {"measurement": "Time", "setting": "Rattus norvegicus [7]", "result": 12, "unit": "s"}, {"measurement": "MTD", "setting": "[8]", "result": 500, "unit": "mg/kg"}, {"measurement": "Ka", "setting": "Rocuronium", "result": "20.1 10^7/M"}, {"measurement": "Ka", "setting": "Cisatracurium", "result": "0.088 10^7/M"}, {"measurement": "Ka", "setting": "Vecuronium", "result": "21 10^7/M"}, {"measurement": "Ka", "setting": "Pancuronium", "result": "1.22 10^7/M"}, {"measurement": "Ka", "setting": "[9]", "result": "339 10^7/M"}, {"measurement": "Ka", "setting": "Rhodamine 6G", "result": "0.1 10^7/M"}, {"measurement": "Ka", "setting": "[10]", "result": "0.043 10^7/M"}, {"measurement": "Ka", "setting": "Proflavine", "result": "29.6 10^7/M"}, {"measurement": "selectivity ratio", "setting": "[11]", "result": 60}, {"measurement": "selectivity ratio", "setting": "[12]", "result": 18.8}, {"measurement": "Activity", "setting": "[13]", "result": "Non-toxic"}, {"measurement": "Activity", "setting": "[14]", "result": "Non-toxic"}, {"measurement": "Activity", "setting": "[15]", "result": "Non-toxic"}, {"measurement": "hemolysis", "setting": "[16]", "result": "< 5", "unit": "%"}, {"measurement": "hemolysis", "setting": "[17]", "result": "< 5", "unit": "%"}, {"measurement": "IC50 at 25 h", "setting": "[18]", "result": "> 1000", "unit": "µg/mL"}, {"measurement": "viability at 25 h, 0.5 mg/ml", "setting": "[19]", "result": 80, "unit": "%"}, {"measurement": "Activity", "setting": "[20]", "result": "Non-toxic"}, {"measurement": "Activity", "setting": "[21]", "result": "Non-toxic"}, {"measurement": "Activity", "setting": "[22]", "result": "Non-toxic"}, {"measurement": "Activity", "setting": "[23]", "result": "Non-toxic"}, {"measurement": "Activity", "setting": "[24]", "result": "Non-toxic"}, {"measurement": "Time", "setting": "Rattus norvegicus [25]", "result": 27, "unit": "s"}, {"measurement": "Time", "setting": "Rattus norvegicus [26]", "result": 15, "unit": "s"}]}]}
